Measurements: PMC12632547 (bioRxiv, 2025)

Columns and labels:
DPP-4 = DPP-4 (Homo sapiens, UniProt P27487); experiment: In vitro protease stability: DPP-4 half-life assay; type: in vitro ADME; conditions: recombinant DPP-4 enzyme, pH 7.4
[1] = Murine plasma pharmacokinetic; type: in vivo, male ICR mice
human GLP-1R = human GLP-1R (Homo sapiens, UniProt P43220); experiment: In vitro GLP-1 receptor potency, cAMP signaling; type: cell-based; conditions: In vitro receptor activity cAMP assay (EC50), CRE-Luc reporter, BHK cells expressing human GLP-1R; mean ± SD, three independent experiments
[2] = male, ICR, mouse, plasma, iv, 1 mg kg-1

human GLP-1R, sequence (P43220 24-463): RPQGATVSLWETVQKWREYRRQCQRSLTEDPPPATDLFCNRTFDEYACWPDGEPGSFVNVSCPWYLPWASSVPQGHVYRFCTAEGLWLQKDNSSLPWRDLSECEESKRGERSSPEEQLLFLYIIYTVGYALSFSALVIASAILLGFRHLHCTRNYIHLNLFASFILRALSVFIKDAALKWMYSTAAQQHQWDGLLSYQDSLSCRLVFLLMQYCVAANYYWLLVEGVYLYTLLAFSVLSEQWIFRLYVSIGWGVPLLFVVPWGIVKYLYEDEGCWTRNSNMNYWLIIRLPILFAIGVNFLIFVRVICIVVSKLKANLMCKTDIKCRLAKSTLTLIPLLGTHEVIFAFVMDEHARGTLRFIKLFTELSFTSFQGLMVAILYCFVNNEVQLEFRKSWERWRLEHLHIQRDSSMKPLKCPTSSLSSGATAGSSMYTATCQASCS
DPP-4, sequence (P27487 whole entry): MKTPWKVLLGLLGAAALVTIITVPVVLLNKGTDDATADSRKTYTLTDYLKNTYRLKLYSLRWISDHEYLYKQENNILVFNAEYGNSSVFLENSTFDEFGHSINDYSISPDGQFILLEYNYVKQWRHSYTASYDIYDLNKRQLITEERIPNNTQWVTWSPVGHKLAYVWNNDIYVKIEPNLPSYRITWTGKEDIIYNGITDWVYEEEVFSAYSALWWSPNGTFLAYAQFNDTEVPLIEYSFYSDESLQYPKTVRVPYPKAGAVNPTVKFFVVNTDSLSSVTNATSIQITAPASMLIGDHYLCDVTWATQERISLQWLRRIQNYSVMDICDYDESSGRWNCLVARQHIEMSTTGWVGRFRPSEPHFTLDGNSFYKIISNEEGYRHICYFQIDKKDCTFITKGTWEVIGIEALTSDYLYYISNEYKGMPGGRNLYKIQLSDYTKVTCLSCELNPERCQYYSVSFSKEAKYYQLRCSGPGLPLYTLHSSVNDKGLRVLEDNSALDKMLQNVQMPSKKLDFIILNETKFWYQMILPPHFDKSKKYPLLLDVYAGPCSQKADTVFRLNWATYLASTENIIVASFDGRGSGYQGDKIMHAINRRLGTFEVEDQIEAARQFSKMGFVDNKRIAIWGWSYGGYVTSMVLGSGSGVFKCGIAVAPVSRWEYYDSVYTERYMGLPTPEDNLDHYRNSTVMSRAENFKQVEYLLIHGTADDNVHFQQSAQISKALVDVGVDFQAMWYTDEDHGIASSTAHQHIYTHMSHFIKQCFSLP

CC[C@H](C)[C@H](NC(=O)[C@H](Cc1ccccc1)NC(=O)[C@H](CCC(=O)O)NC(=O)[C@H](CCCCN)NC(=O)[C@H](C)NC(=O)[C@H](C)NC(=O)[C@H](CCC(N)=O)NC(=O)CNC(=O)[C@H](CCC(=O)O)NC(=O)[C@H](CC(C)C)NC(=O)[C@H](Cc1ccc(O)cc1)NC(=O)[C@H](CO)NC(=O)[C@H](CO)NC(=O)[C@@H](NC(=O)[C@H](CC(=O)O)NC(=O)[C@H](CO)NC(=O)[C@@H](NC(=O)[C@H](Cc1ccccc1)NC(=O)[C@@H](NC(=O)CNC(=O)[C@H](CCC(=O)O)NC(=O)[C@H](C)NC(=O)N(N)Cc1c[nH]cn1)[C@@H](C)O)[C@@H](C)O)C(C)C)C(=O)N[C@@H](C)C(=O)N[C@@H](Cc1c[nH]c2ccccc12)C(=O)N[C@@H](CC(C)C)C(=O)N[C@H](C(=O)N[C@@H](CCCNC(=N)N)C(=O)NCC(=O)N[C@@H](CCCNC(=N)N)C(=O)NCC(=O)O)C(C)C [AzaH7, [azaHis^7/R^34]-GLP-1(7–37)]
half-life at 0.1 mmol/l (DPP-4): > 24 h
clearance [1, 2]: ~7 mL/min/kg
half-life [1, 2]: 1.67 ± 0.52 h
plasma half-life ([1]; mice, single IV 1 mg kg^−1, plasma, hours converted to minutes): ~1.67 h
EC50 (human GLP-1R): 743 ± 164 pM
